Common to all, as to experiment: NCI anticancer screen, dose series, 48 h
Assay [1] relates to T-47D breast.
Assay [2] deals with HS 578T breast.
The subject of assay [3] is KM20L2 colon.
In assay [4] the test system is SNB-78 CNS.
Assay [5] has as its system M19-MEL melanoma.
The test system of assay [6] is DMS 273 small cell lung.
For assay [7], the system named is DMS 114 small cell lung.
Assay [8] relates to DLD-1 colon.

Where “and” joins values, the source holds several entries; their conditions need not be identical. Equal values may be shown once.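 Tested at 5 concentrations; 48 h exposure; 96-well plates; endpoints linearly interpolated, else capped at highest concentration. Here, GI50 denotes the concentration required for 50% inhibition of growth. The concentration for full growth arrest is given as TGI.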

Results on 26 compounds are retold here after PubChem BioAssay (NCI).

In the case of `COc1ccc(-c2ccc(-c3ccc(C(=N)N)o3)o2)cc1`, the GI50 was 1.53 µM in assay [1] and 4.33 µM in assay [2]. The figures for the TGI in assay [1] and in assay [2] were 4.07 µM and 18.4 µM, respectively.

`O=c1c(O)c(-c2cc(O)c(O)c(O)c2)oc2cc(O)cc(O)c12`: the TGI in assay [1] and in assay [2] was > 100 µM throughout.

Consider `C#CCOc1cccc(Nc2ncnc3cc(NC(=O)CCl)ccc23)c1`, for which the GI50 was 9.11 µM in assay [1] and 3.61 µM in assay [2]. For the same compound, the results for the TGI in assay [1] and in assay [2] were 32 µM and 26.9 µM, respectively.

As for `O=c1c2cc(Cl)ccc2sc2cccc(Cl)c12`, the TGI in assay [3], in assay [4], in assay [5] and in assay [6] was > 100 µM in each case.

Regarding `COc1cc(Nc2ncc(F)c(Nc3ccc4c(n3)N(COP(=O)(O)O)C(=O)C(C)(C)O4)n2)cc(OC)c1OC`, in assay [1], the GI50 is 2.92 µM and 1.24 µM; the TGI was 26 µM and > 10 µM. In assay [2], the GI50 was 0.538 µM and 0.173 µM; the TGI is 4.27 µM and 0.59 µM.

Take `CCN(CC)c1ccc(C(=O)c2ccc(N(CC)CC)cc2)cc1`: in assay [1], the GI50 is 0.789 µM and the TGI is > 100 µM. In assay [2], the GI50 was 0.237 µM and the TGI was found to be 1 µM.

For `COC(=O)[C@@H](C)C[C@H](Cc1ccccc1)NC(=O)c1csc([C@@H](C[C@H](C(C)C)N(C)C(=O)[C@@H](NC(=O)[C@H]2CCCCN2C)C2CC2)OC(C)=O)n1`, in assay [2], the GI50 was 0.00112 µM and 0.00165 µM; the TGI is > 16.5 µM.

With `C=C1C(=O)O[C@H]2[C@H]1CC/C(Cn1cc(-c3ccccc3C(F)(F)F)nn1)=C\CC[C@@]1(C)O[C@@H]21`, in assay [1], the GI50 is 1.7 µM and the TGI amounted to 4.71 µM. Moreover, in assay [2], the GI50 was 3.57 µM and the TGI turned out to be 26.7 µM.

Regarding `O=C(O)C1CC(O)CN1` (stereo not drawn), the TGI in assay [1] and in assay [2] was > 100 µM in each case.

With `Cc1cnc(C(=O)NNc2nc3sc4c(c3c(=O)n2C)C(C)CCC4)cn1` (stereo not drawn), the GI50 is 0.416 µM in assay [1] and 1.56 µM in assay [2]. Besides, the TGI in assay [1] turned out to be 5.68 µM; in assay [2], 17.1 µM.

For the compound `O=C1C(Cl)=C(NCc2ccco2)C(=O)c2ccccc21`, the values for the GI50 in assay [1] and in assay [2] were 10.2 µM and 3.2 µM, respectively. In addition, the TGI in assay [1] came out at 73.7 µM; in assay [2], 10.1 µM.

Take `CCOC(=O)c1c2c(n3ccccc13)C(=O)c1ncccc1C2=O`: in assay [1], the GI50 was 2.51 µM and the TGI was 47.8 µM.

As for `O=C(NC12CC3CC(CC(C3)C1)C2)C(=O)c1c[nH]c2ccccc12`, the TGI came to 19.7 µM in assay [3]; 40.3 µM in assay [4]; 36.2 µM in assay [5]; 36 µM in assay [7]; 29.6 µM in assay [6].

On to `CCNC(=O)O[C@H]1CN[C@H](C#Cc2cc3ncnc(Nc4ccc(OCc5cccc(F)c5)c(Cl)c4)c3s2)C1`, for which the values for the GI50 in assay [1] and in assay [2] were 1.49 µM and 4.82 µM, respectively. In addition, the TGI was > 25 µM in assay [1] and 24.6 µM in assay [2].

Take `O=C1C(=O)c2cccnc2-c2ncccc21`: in assay [1], the GI50 is 0.205 µM and the TGI amounted to 0.461 µM. Besides, in assay [2], the GI50 was 0.244 µM and the TGI was 1.08 µM.

For the compound `CC(=O)OCC1OC(n2c(-c3ccc(C)cc3)cc(-c3ccccc3)c(C#N)c2=O)C(OC(C)=O)C(OC(C)=O)C1OC(C)=O` (stereo not drawn), the TGI in assay [3], in assay [4], in assay [5], in assay [7] and in assay [8] was > 100 µM throughout.

Take `COc1cc(C2CC(c3ccc(Nc4ccnc5cc(Cl)ccc45)cc3)=NN2c2ccc(Cl)cc2)cc(OC)c1OC` (stereo not drawn): in assay [1], the GI50 is 2.13 µM and the TGI is > 100 µM. In assay [2], the GI50 is 2.18 µM and the TGI is > 100 µM.

On to `C=C1CC2(OC1=O)C(=O)Nc1ccccc12` (stereo not drawn), for which, in assay [1], the GI50 was 1.13 µM and the TGI is 2.92 µM. In assay [2], the GI50 is 11 µM and the TGI stood at 56.6 µM.

On to `CC(C)=CC1=C2C3=C(C(=O)C4(O)Oc5c(C)c6c7c(c5OC24C)[C@@H](C)CC[C@@H]7[C@@H](C)C[C@H]6C=C(C)C)C(C)CCC3C(C)C1` (stereo partly drawn), for which, in assay [2], the GI50 was > 100 µM and the TGI is > 100 µM.

For the compound `CN(C)CCCNC(=O)c1cc(NC(=O)c2cc(NC(=O)CCNS(=O)(=O)c3ccc4c(c3)C(=O)c3ccccc3C4=O)cn2C)cn1C`, in assay [1], the GI50 is > 100 µM and the TGI was > 100 µM. For the same compound, in assay [2], the GI50 is > 100 µM and the TGI is > 100 µM.

`COc1cccc(/C=N/C(/N=C/c2cccc(OC)c2O)c2cccc(OC)c2O)c1O`: the TGI worked out at 63.9 µM in assay [1] and 61.5 µM in assay [2].

For `COc1cc2c(cc1OC)C13CCN4CC5CCOC6CC(=O)N2C1C6C5CC43` (stereo not drawn), the TGI in assay [1] and in assay [2] was > 100 µM throughout.

As to `CN(C)CCNC(=O)c1ccc(NC(=O)c2nc([N+](=O)[O-])cn2C)cc1`, the TGI in assay [1] and in assay [2] was > 100 µM each time.

`Cc1cn(-c2cc(NC(=O)c3ccc(C)c(Nc4nccc(-c5cccnc5)n4)c3)cc(C(F)(F)F)c2)cn1`: in assay [1], the GI50 was > 10 µM and 6.71 µM; the TGI is > 10 µM and 32.3 µM. Also, in assay [2], the GI50 was 5.73 µM and 2.52 µM; the TGI is > 10 µM and 6.8 µM.

Regarding `O=C1c2ccccc2-c2c1c1ccccc1c(=O)n2CCCn1ccnc1`, in assay [1], the GI50 was 3.28 µM and the TGI is > 100 µM. In addition, in assay [2], the GI50 was 7.92 µM and the TGI turned out to be 94.7 µM.

With `CN(Cc1cc(C(C)(C)C)cc(Br)c1O)Cc1cc(C(C)(C)C)cc(Br)c1O`, the results for the TGI in assay [1] and in assay [2] were 12.3 µM and 7.65 µM, respectively.
